Assay results from ChEMBL document CHEMBL5331078, “1-Benzyloxy-5-phenyltetrazole derivatives highly active against androgen receptor-dependent prostate cancer cells” (Eur J Med Chem, 2023).

Experiments:
CWR22R = experiment: Antiproliferative activity against AR-v7 positive human 22Rv1 cells measured after 3 days by celltiter-glo luminescence assay; format: functional, cell-based
PC-3 = experiment: Antiproliferative activity against human PC-3 cells measured after 3 days by celltiter-glo luminescence assay; format: functional, cell-based; conditions: PC-3, 72 h
[1] = Antiproliferative activity against Ar-luc mouse Adipose stromal cell measured after 3 days by celltiter-glo luminescence assay; format: toxicity, cell-based; conditions: Ar-luc mouse adipose stromal cells
Papain = target: T1, Papain (Carica papaya, UniProt P00784); experiment: Inhibition of papaya papain protease activity assessed as covalent binding mode of action at 10 uM incubated for 30 mins by absorbance based analysis; conditions: 0.5 h
T1 sequence (P00784 whole entry): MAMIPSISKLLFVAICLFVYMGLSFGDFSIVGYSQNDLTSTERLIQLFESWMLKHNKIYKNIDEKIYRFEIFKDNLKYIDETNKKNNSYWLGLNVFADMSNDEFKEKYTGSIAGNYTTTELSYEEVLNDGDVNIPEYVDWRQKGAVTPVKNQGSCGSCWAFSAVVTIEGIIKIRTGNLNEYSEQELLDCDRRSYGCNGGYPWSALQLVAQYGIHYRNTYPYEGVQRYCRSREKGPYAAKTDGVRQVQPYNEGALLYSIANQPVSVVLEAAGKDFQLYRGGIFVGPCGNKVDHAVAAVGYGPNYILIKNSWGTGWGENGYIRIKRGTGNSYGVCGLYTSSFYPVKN

[2] = Partition coefficient, logD of the compound at pH 7.4 by HPLC analysis; format: physicochemical; conditions: octanol/water
[3] = Kinetic solubility of the compound in 0.01 M HCl at pH 2 after 30 mins by nephelometry; format: physicochemical; conditions: read-out: Kinetic_solubility
[4] = Kinetic solubility of the compound in phosphate buffer at pH 6.5 after 30 mins by nephelometry; format: physicochemical; conditions: read-out: Kinetic_solubility
[5] = Metabolic stability in mouse liver microsomes assessed as half life incubated for 60 mins in presence of NADPH-regenerating system; format: ADME, Microsome; conditions: microsomes, 1 h
[6] = Metabolic stability in mouse liver microsomes assessed as intrinsic clearance incubated for 60 mins in presence of NADPH-regenerating system; format: ADME, Microsome; conditions: microsomes, 1 h
[7] = Homo sapiens, 22Rv1, 72 h, read-out: IC50

Row | IC50 (PC-3) | SMILES | IC50 (CWR22R; [7]) | IC50 at 3 days [1] | other results
1 | 16.8 µM | FC(F)(F)c1cccc(COn2nnnc2-c2ccc(Cl)cc2)c1 | 0.261 µM | 4.9 µM | 
2 | > 100 µM | Fc1cccc(COn2nnnc2-c2ccc(Cl)cc2)c1 | 0.012 µM | 2.6 µM | 
3 | > 100 µM | Fc1ccc(-c2nnnn2OCc2ccnc(Cl)c2)cc1 | 0.5 µM | 15 µM | 
4 | > 100 µM | Clc1ccc(-c2nnnn2OCc2cccc(Br)c2)cc1 | 0.066 µM | > 100 µM | 
5 | > 10 µM | Clc1ccc(-c2nnnn2OCC2CC2)cc1 | > 10 µM |  | 
6 | > 100 µM | Clc1ccc(COn2nnnc2-c2cccc(Cl)c2)cc1 | 2.03 µM | 36.3 µM | 
7 | > 100 µM | COc1ccc(-c2nnnn2OCc2cccc(Cl)c2)cc1 | 0.023 µM | 6.8 µM | 
8 | > 100 µM | Clc1ccc(-c2nnnn2OCc2ccc(Cl)s2)cc1 | 0.131 µM | > 60 µM | 
9 | > 10 µM | Clc1ccc(On2nnnc2-c2ccc(Cl)cc2)cc1 | > 10 µM |  | 
10 | > 100 µM | Clc1ccc(-c2nnnn2OCc2ccc(Cl)nc2)cc1 | 0.391 µM | 3 µM | 
11 | 52.1 µM | Clc1ccc(-c2nnnn2OCc2ccc(Br)cc2)cc1 | 0.023 µM | 13.8 µM | 
12 | 47.4 µM | Fc1ccc(-c2nnnn2OCc2ccc(Cl)cc2)cc1 | 0.74 µM | > 100 µM | inhibition (INH) (Papain): Not Active
13 | > 10 µM | Fc1ccc(On2nnnc2-c2ccc(Cl)cc2)cc1 | > 10 µM |  | 
14 | > 100 µM | Fc1ccc(-c2nnnn2OCc2cccc(Cl)c2)cc1 | 0.076 µM | > 60 µM | 
15 | > 100 µM | Clc1cccc(COn2nnnc2-c2ccc(Cl)cc2Cl)c1 | 0.4 µM | > 100 µM | 
16 | 0.566 µM | Clc1ccc(-c2nnnn2OCc2ccccc2)cc1 | 0.04 µM |  | 
17 | 30.2 µM | COc1ccc(-c2nnnn2OCc2ccc(Cl)cc2)cc1 | 0.025 µM | 22.9 µM | 
18 | 25.7 µM | Fc1ccc(COn2nnnc2-c2ccc(Cl)cc2)cc1 | 0.031 µM | 5.4 µM | 
19 | > 10 µM | Clc1cccc(COn2nnnc2-c2cccnc2)c1 | 3.55 µM |  | 
20 | > 60 µM | Clc1ccc(-c2nnnn2OCc2ccc(Cl)c(Cl)c2)cc1 | 0.1 µM | > 60 µM | 
21 | > 100 µM | Fc1ccc(-c2nnnn2OCc2ccc(Cl)c(Cl)c2)cc1 | 0.066 µM | 23.4 µM | 
22 | 6.79 µM | Clc1ccc(-c2nnnn2OCc2cccc(Cl)c2)cc1 | 0.073 µM | > 60 µM | logD [2]: 4.5; solubility kinetic at 0.5 h [3]: < 1.6 µg/mL; solubility kinetic at 0.5 h [4]: < 1.6 µg/mL; t1/2 [5]: 2.45 h; CLH [6]: 147 µL/min/mg
23 | 14.2 µM | Clc1ccc(-c2nnnn2OCc2ccnc(Cl)c2)cc1 | 0.022 µM | 7 µM | 
24 | > 100 µM | Clc1cccc(COn2nnnc2-c2cccc(Cl)c2)c1 | 0.036 µM | 10.6 µM | 
25 | > 100 µM | Clc1ccc(COn2nnnc2-c2ccc(Cl)cc2Cl)cc1 | 3.79 µM | > 100 µM | 
26 | > 10 µM | COc1ccc(COn2nnnc2-c2ccc(Cl)cc2)cc1 | > 10 µM |  | 
27 | > 100 µM | Fc1ccc(-c2nnnn2OCc2ccc(Cl)s2)cc1 | 3.75 µM | > 100 µM | 

More lines, now with the values behind:

Row | SMILES | IC50 (PC-3) | IC50 (CWR22R; [7]) | IC50 at 3 days [1] | other results
28 | Fc1ccc(CO/N=C\c2ccc(Cl)cc2)cc1 | > 10 µM | > 10 µM |  | 
29 | COc1ccc(-c2nnnn2OC(F)(F)c2ccccc2)cc1 | > 10 µM | 5.41 µM |  | 
30 | Cc1nn(C)c(Cl)c1-c1nnnn1OCc1cccc(Cl)c1 |  |  |  | IC50 (CWR22R; cwr22r): Not Active
31 | Fc1ccc(-c2nnnn2OCCc2ccc(Cl)cc2)cc1 |  | > 10 µM |  | 
32 | Cc1nn(C)c(Cl)c1-c1nnnn1OCc1ccc(Cl)cc1 |  |  |  | IC50 (CWR22R; cwr22r): Not Active
33 | CNC(=O)c1ccc(N2C(=S)N(c3ccc(C#N)c(C(F)(F)F)c3)C(=O)C2(C)C)cc1F [ENZALUTAMIDE] | 42 µM | 36 µM |  | 
34 | FC(F)(F)c1cccc(COn2nnnc2-c2cccc(C(F)(F)F)c2)c1 | > 10 µM | > 10 µM |  | 
35 | Clc1ccc(CCn2nnnc2-c2ccc(Cl)cc2)cc1 |  | > 10 µM |  | 
36 | Clc1ccc(/C=N\OCc2ccc(Cl)cc2)cc1 | > 10 µM | > 10 µM |  | 
37 | COc1ccc(COn2nnnc2-c2ccc(OC)cc2)cc1 | > 10 µM | 9.1 µM |  | 
38 | Clc1ccc(CCOn2nnnc2-c2ccc(Cl)cc2)cc1 |  | > 10 µM |  | 
39 | CC(C)(c1ccc(Cl)cc1)n1nnnc1-c1ccc(Cl)cc1 |  | > 10 µM |  | 
40 | O=C(Nn1nnnc1-c1ccccc1)c1ccc(Cl)cc1 |  | > 10 µM |  | 
41 | Clc1ccc(-c2nnnn2OCC2CCCCC2)cc1 | > 10 µM | > 10 µM |  | 
42 | Fc1ccc(-c2nnnn2OC(F)(F)c2ccc(Cl)cc2)cc1 | > 10 µM | > 10 µM |  | 
43 | Fc1ccc(On2nnnc2-c2ccc(F)cc2)cc1 | > 10 µM | > 10 µM |  | 
44 | CC(C)(On1nnnc1-c1ccc(Cl)cc1)c1ccc(Cl)cc1 |  | > 10 µM |  | 
45 | FC(F)(On1nnnc1-c1ccc(Cl)cc1)c1ccccc1 | > 10 µM | > 10 µM |  | inhibition (INH) (Papain): Not Active
46 | CC(On1nnnc1-c1ccc(Cl)cc1)c1ccc(Cl)cc1 (stereo not drawn) | > 10 µM | 1.71 µM |  | 
47 | Clc1ccc(COn2nnnc2-c2cccnc2)cc1 |  |  |  | IC50 (CWR22R; cwr22r): Not Active
